Source: patent publication US8648066B2 (Exelixis, Inc., priority 2009, dated 2014)

These molecules were tested against mTOR/GbL/Raptor (mTORC1) (Homo sapiens, UniProt P42345) (assay: mTOR/GbL/Raptor (mTORC1) ELISA assay). Conditions: phosphorylation of 4E-BP1; 0.2 nM mTORC1, 10 μM ATP; read-out: IC50 in this assay (mTORC1 ELISA).
Format: biochemical
Method in brief: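 Human mTORC1 (0.2 nM) phosphorylated 50 nM His-tagged 4E-BP1 with 10 µM ATP in HEPES pH 7.2 containing 10 mM MnCl2, 120 min at ambient temperature. Substrate was captured on Ni-chelate plates; phospho-4E-BP1 was detected by primary antibody and HRP secondary with luminescence.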

IC50 | Structure (SMILES)
≤ 10 nM | CC1(C)CCc2ncnc(N3CCOc4ccc(-c5cnc6sc(N)nc6c5)cc4C3)c2C1 [Example 248, 6-[4-(6,6-dimethyl-5,6,7,8-tetrahydroquinazolin-4-yl)-2,3,4,5-tetrahydro-1,4-benzoxazepin-7-yl][1,3]thiazolo[5,4-b]pyridin-2-amine]
50 to 250 nM | Cc1ncnc(N2CCOc3ccc(-c4ccc5[nH]nc(N)c5c4)cc3C2)c1Cc1ccc(F)cc1 [Example 249, 5-(4-{5-[(4-fluorophenyl)methyl]-6-methylpyrimidin-4-yl}-2,3,4,5-tetrahydro-1,4-benzoxazepin-7-yl)-1H-indazol-3-amine]
≤ 10 nM | CCNc1nc2ncc(-c3ccc4c(c3)CN(c3ncnc(C)c3Cc3ccc(F)cc3)CCO4)cc2[nH]1 [Example 250, N-ethyl-6-(4-{5-[(4-fluorophenyl)methyl]-6-methylpyrimidin-4-yl}-2,3,4,5-tetrahydro-1,4-benzoxazepin-7-yl)-1H-imidazo[4,5-b]pyridin-2-amine]
10 to 50 nM | Cc1nc(N2CCOc3ccc(-c4ccc(-c5ncc[nH]5)cc4)cc3C2)c2ccccc2n1 [Example 251, 7-[4-(1H-imidazol-2-yl)phenyl]-4-(2-methylquinazolin-4-yl)-2,3,4,5-tetrahydro-1,4-benzoxazepine]
≤ 10 nM | CC(O)c1nc2cc(-c3ccc4c(c3)CN(c3ncnc5c3CC(C)(C)CC5)CCO4)cnc2[nH]1 (stereo not drawn) [Example 252, 1-{6-[4-(6,6-dimethyl-5,6,7,8-tetrahydroquinazolin-4-yl)-2,3,4,5-tetrahydro-1,4-benzoxazepin-7-yl]-3H-imidazo[4,5-b]pyridin-2-yl}ethanol]
50 to 250 nM | Cc1nc2ccc(-c3ccc4c(c3)CN(c3ccnc(Nc5ccccc5)n3)CCO4)cc2[nH]1 [Example 253, 4-[7-(2-methyl-1H-benzimidazol-6-yl)-2,3-dihydro-1,4-benzoxazepin-4(5H)-yl]-N-phenylpyrimidin-2-amine]
≤ 10 nM | CCc1nc2ccc(-c3ccc4c(c3)CN(c3ncnc5c3CC(C)(C)CC5)CCO4)cc2[nH]1 [Example 254, 4-(6,6-dimethyl-5,6,7,8-tetrahydroquinazolin-4-yl)-7-(2-ethyl-1H-benzimidazol-6-yl)-2,3,4,5-tetrahydro-1,4-benzoxazepine]
≤ 10 nM | CCNc1nc2ccc(-c3ccc4c(c3)CN(c3ncnc5c3CC(C)(C)CC5)CCO4)cc2[nH]1 [Example 255, 6-[4-(6,6-dimethyl-5,6,7,8-tetrahydroquinazolin-4-yl)-2,3,4,5-tetrahydro-1,4-benzoxazepin-7-yl]-N-ethyl-1H-benzimidazol-2-amine]
10 to 50 nM | COc1ccc2c(N3CCOc4ccc(-c5ccc(-c6ncc[nH]6)cc5)cc4C3)nc(C)nc2c1 [Example 256, 7-[4-(1H-imidazol-2-yl)phenyl]-4-[2-methyl-7-(methyloxy)quinazolin-4-yl]-2,3,4,5-tetrahydro-1,4-benzoxazepine]
250 to 1000 nM | Cc1nc2ncc(-c3ccc4c(c3)CN(c3ncnc(C)c3C)CCO4)cc2[nH]1 [Example 257, 4-(5,6-dimethylpyrimidin-4-yl)-7-(2-methyl-1H-imidazo[4,5-b]pyridin-6-yl)-2,3,4,5-tetrahydro-1,4-benzoxazepine]
250 to 1000 nM | COc1ccc2c(N3CCOc4ccc(-c5ccc6nc(C)[nH]c6c5)cc4C3)nc(C)nc2c1 [Example 258, 7-(2-methyl-1H-benzimidazol-6-yl)-4-[2-methyl-7-(methyloxy)quinoazolin-4-yl]-2,3,4,5-tetrahydro-1,4-benzoxazepine]
50 to 250 nM | CCNc1nc2ccc(-c3ccc4c(c3)CN(c3ncnc5cc(OC)c(OC)cc35)CCO4)cc2[nH]1 [Example 259, 6-{4-[6,7-bis(methyloxy)quinazolin-4-yl]-2,3,4,5-tetrahydro-1,4-benzoxazepin-7-yl}-N-ethyl-1H-benzimidazol-2-amine]
50 to 250 nM | CCNc1nc2ccc(-c3ccc4c(c3)CN(c3nc(CC)nc5ccccc35)CCO4)cc2[nH]1 [Example 260, N-ethyl-6-[4-(2-ethylquinazolin-4-yl)-2,3,4,5-tetrahydro-1,4-benzoxazepin-7-yl]-1H-benzimidazol-2-amine]
250 to 1000 nM | CCNc1nc2ccc(-c3ccc4c(c3)CN(c3ccnc5cc(OC)c(OC)cc35)CCO4)cc2[nH]1 [Example 261, 6-{4-[6,7-bis(methyloxy)quinolin-4-yl]-2,3,4,5-tetrahydro-1,4-benzoxazepin-7-yl}-N-ethyl-1H-benzimidazol-2-amine]
50 to 250 nM | CC1(C)CCc2ncnc(N3CCOc4ccc(-c5cnc6[nH]ncc6c5)cc4C3)c2C1 [Example 263, 4-(6,6-dimethyl-5,6,7,8-tetrahydroquinazolin-4-yl)-7-(1H-pyrazolo[3,4-b]pyridin-5-yl)-2,3,4,5-tetrahydro-1,4-benzoxazepine]
≤ 10 nM | CCNc1nc2ncc(-c3ccc4c(c3)CN(c3ncnc5c3CC(C)(C)CC5)CCO4)cc2[nH]1 [Example 264, 6-[4-(6,6-dimethyl-5,6,7,8-tetrahydroquinbazolin-4-yl)-2,3,4,5-tetrahydro-1,4-benzoxazepin-7-yl]-N-ethyl-1H-imidazo[4,5-b]pyridin-2-amine]
≤ 10 nM | CC1(C)CCc2ncnc(N3CCOc4ccc(-c5ccc6[nH]c(C(F)F)nc6c5)cc4C3)c2C1 [Example 265]

IC50 | Structure (SMILES)
250 to 1000 nM | Cc1nc(N2CCOc3ccc(-c4ccc(N)nc4)cc3C2)c2ccccc2n1 [Example 266, 5-[4-(2-methylquinazolin-4-yl)-2,3,4,5-tetrahydro-1,4-benzoxazepin-7-yl]pyridin-2-amine]
250 to 1000 nM | COc1ccc2c(N3CCOc4ccc(-c5cnc6[nH]ccc6c5)cc4C3)nc(C)nc2c1 [Example 267, 4-[2-methyl-7-(methyloxy)quinazolin-4-yl]-7-(1H-pyrrolo[2,3-b]pyridin-5-yl)-2,3,4,5-tetrahydro-1,4-benzoxazepine]
50 to 250 nM | CCNc1nc2ccc(-c3ccc4c(c3)CN(c3ccnc5cc(F)ccc35)CCO4)cc2[nH]1 [Example 268, N-ethyl-6-[4-(7-fluoroquinolin-4-yl)-2,3,4,5-tetrahydro-1,4-benzoxazepin-7-yl]-1H-benzimidazol-2-amine]
250 to 1000 nM | CCNc1nc2ccc(-c3ccc4c(c3)CN(c3nc(NC)nc5ccccc35)CCO4)cc2[nH]1 [Example 269, 4-{7-[2-(ethylamino)-1H-benzimidazol-6-yl]-2,3-dihydro-1,4-benzoxazepin-4(5H)-yl}-N-methylquinazolin-2-amine]
250 to 1000 nM | CCNc1nc(N2CCOc3ccc(-c4ccc5nc(NCC)[nH]c5c4)cc3C2)c2ccccc2n1 [Example 270, N-ethyl-4-{7-[2-(ethylamino)-1H-benzimidazol-6-yl]-2,3-dihydro-1,4-benzoxazepin-4(5H)-yl}quinazolin-2-amine]
250 to 1000 nM | CCNc1nc2ccc(-c3ccc4c(c3)CN(c3nc(C)nc5cc(OC)c(OC)cc35)CCO4)cc2[nH]1 [Example 271, N-ethyl-6-{4-[2-methyl-6,7-bis(methyloxy)quinazolin-4-yl]-2,3,4,5-tetrahydro-1,4-benzoxazepin-7-yl}-1H-benzimidazol-2-amine]
50 to 250 nM | COc1cc2nccc(N3CCOc4ccc(-c5ccc(-c6ncc[nH]6)cc5)cc4C3)c2cc1OC [Example 272, 4-[6,7-bis(methyloxy)quinolin-4-yl]-7-[4-(1H-imidazol-2-yl)phenyl]-2,3,4,5-tetrahydro-1,4-benzoxazepine]
250 to 1000 nM | COc1ccc2c(N3CCOc4ccc(-c5ccc(N)nc5)cc4C3)nc(C)nc2c1 [Example 273, 5-{4-[2-methyl-7-(methyloxy)quinazolin-4-yl]-2,3,4,5-tetrahydro-1,4-benzoxazepin-7-yl}pyridin-2-amine]
≥ 2000 nM | COc1ccc2c(N3CCOc4ccc(-c5ccc6[nH]ncc6c5)cc4C3)nc(C)nc2c1 [Example 274, 7-(1H-indazol-5-yl)-4-[2-methyl-7-(methyloxy)quinazolin-4-yl]-2,3,4,5-tetrahydro-1,4-benzoxazepine]
50 to 250 nM | CCNc1nc2ccc(-c3ccc4c(c3)CN(c3cc(Nc5ccccc5)ncn3)CCO4)cc2[nH]1 [Example 275, N-ethyl-6-{4-[6-(phenylamino)pyrimidin-4-yl]-2,3,4,5-tetrahydro-1,4-benzoxazepin-7-yl}-1H-benzimidazol-2-amine]
250 to 1000 nM | CCNc1nc2ccc(-c3ccc4c(c3)CN(c3cc(Nc5ccc(OC)cc5)ncn3)CCO4)cc2[nH]1 [Example 276, N-ethyl-6-[4-(6-{[4-(methyloxy)phenyl]amino}pyrimidin-4-yl)-2,3,4,5-tetrahydro-1H-benzoxazepin-7-yl]-1H-benzimidazol-2-amine]
1000 to 2000 nM | CCNc1nc2ccc(-c3ccc4c(c3)CN(c3ccncn3)CCO4)cc2[nH]1 [Example 277, N-ethyl-6-(4-pyrimidin-4-yl-2,3,4,5-tetrahydro-1,4-benzoxazepin-7-yl)-1H-benzimidazol-2-amine]
50 to 250 nM | CCNc1nc2ccc(-c3ccc4c(c3)CN(c3ccnc5ccc(OC)cc35)CCO4)cc2[nH]1 [Example 278, N-ethyl-6-{4-[6-(methyloxy)quinolin-4-yl]-2,3,4,5-tetrahydro-1,4-benzoxazepin-7-yl}-1H-benzimidazol-2-amine]
250 to 1000 nM | CCNc1nc2ccc(-c3ccc4c(c3)CN(c3nc(CC)nc5cc(OC)ccc35)CCO4)cc2[nH]1 [Example 279, N-ethyl-6-{4-[2-ethyl-7-(methyloxy)quinazolin-4-yl]-2,3,4,5-tetrahydro-1,4-benzoxazepin-7-yl}-1H-benzimidazol-2-amine]
250 to 1000 nM | COc1ccc2c(N3CCOc4ccc(-c5ccc6nc[nH]c6c5)cc4C3)nc(C)nc2c1 [Example 280, 7-(1H-benzimidazol-6-yl)-4-[2-methyl-7-(methyloxy)quinoazolin-4-yl]-2,3,4,5-tetrahydro-1,4-benzoxazepine]
50 to 250 nM | CCNc1nc2ccc(-c3ccc4c(c3)CN(c3ncnc5cc(F)ccc35)CCO4)cc2[nH]1 [Example 281, N-ethyl-6-[4-(7-fluoroquinazolin-4-yl)-2,3,4,5-tetrahydro-1,4-benzoxazepin-7-yl]-1H-benzimidazol-2-amine]
